This is an account of results in ChEMBL document CHEMBL1154442, “The total synthesis of fukiic acid, an HIV-1 integrase inhibitor” (Eur J Med Chem, 2008).

Some results are limits rather than exact numbers.

Data set [1] can be described thus: Cytotoxicity against human MT4 cells by MTT assay. The data set is classed as cell-based. For orientation: Tetrazolium dyes change colour on reduction, which living cells bring about.
Data set [2] deals with T1, Human immunodeficiency virus type 1 integrase (Human immunodeficiency virus 1, UniProt Q7ZJM1). The experiment in a line: Inhibition of HIV1 integrase using U5A/U5B double-stranded DNA as substrate by ELISA.
For data set [3], the system named is Human immunodeficiency virus 1. Briefly: Antiviral activity against HIV1 3B infected in human MT4 cells assessed as inhibition of virus-induced cytopathic effect by MTT assay. The data set is classed as functional, organism-based. As to conditions: Human immunodeficiency virus 1, 3B. (In general: Cytopathic effects are the visible damage that an infection or toxin causes in cultured cells.)

In data set [4] the target is T1, Human immunodeficiency virus type 1 integrase. The experiment in a line: Inhibition of HIV1 integrase using U5A/U5B double-stranded DNA as substrate by ELISA in presence of BSA. (An ELISA detects its analyte on a solid surface through an enzyme-linked reagent.)

T1 sequence (Q7ZJM1 whole entry): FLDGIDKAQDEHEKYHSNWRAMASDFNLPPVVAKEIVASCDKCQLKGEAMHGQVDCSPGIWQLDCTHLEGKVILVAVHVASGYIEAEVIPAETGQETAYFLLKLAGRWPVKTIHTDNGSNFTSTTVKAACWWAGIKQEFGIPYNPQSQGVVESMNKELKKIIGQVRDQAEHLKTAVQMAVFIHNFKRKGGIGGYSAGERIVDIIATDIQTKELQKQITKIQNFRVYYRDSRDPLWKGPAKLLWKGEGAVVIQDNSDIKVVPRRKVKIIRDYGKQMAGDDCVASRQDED

For `O=C(O)C(O)C(O)(Cc1ccc(O)c(O)c1)C(=O)O` (racemic), half-maximal cytotoxicity in data set [1] (CC50) was put at 22 µM. Also, the IC50 (in general, the concentration needed to halve the response being measured) was 0.25 µM in data set [2] and 17 µM in data set [4]. Moreover, the EC50 (in general, the concentration at which the effect is half-maximal) in data set [3] was over 22 µM.
